Data as given in ChEMBL document CHEMBL4311993, “Structure-activity relationship study of NPP1 inhibitors based on uracil-N1-(methoxy)ethyl-β-phosphate scaffold” (Eur J Med Chem, 2019).
The source made the active and inactive calls. The calls are words filed in the database; no cut-off is given here.

Legend:
[1] = target: T1, Ectonucleotide pyrophosphatase/phosphodiesterase family member 1 (Homo sapiens) (UniProt P22413); assay: Inhibition of human NPP1 expressed in COS7 cell membranes at 100 uM using pNP-TMP as substrate preincubated for 3 mins followed by substrate addition and measured after 15 mins relative to control
T1 sequence (whole entry): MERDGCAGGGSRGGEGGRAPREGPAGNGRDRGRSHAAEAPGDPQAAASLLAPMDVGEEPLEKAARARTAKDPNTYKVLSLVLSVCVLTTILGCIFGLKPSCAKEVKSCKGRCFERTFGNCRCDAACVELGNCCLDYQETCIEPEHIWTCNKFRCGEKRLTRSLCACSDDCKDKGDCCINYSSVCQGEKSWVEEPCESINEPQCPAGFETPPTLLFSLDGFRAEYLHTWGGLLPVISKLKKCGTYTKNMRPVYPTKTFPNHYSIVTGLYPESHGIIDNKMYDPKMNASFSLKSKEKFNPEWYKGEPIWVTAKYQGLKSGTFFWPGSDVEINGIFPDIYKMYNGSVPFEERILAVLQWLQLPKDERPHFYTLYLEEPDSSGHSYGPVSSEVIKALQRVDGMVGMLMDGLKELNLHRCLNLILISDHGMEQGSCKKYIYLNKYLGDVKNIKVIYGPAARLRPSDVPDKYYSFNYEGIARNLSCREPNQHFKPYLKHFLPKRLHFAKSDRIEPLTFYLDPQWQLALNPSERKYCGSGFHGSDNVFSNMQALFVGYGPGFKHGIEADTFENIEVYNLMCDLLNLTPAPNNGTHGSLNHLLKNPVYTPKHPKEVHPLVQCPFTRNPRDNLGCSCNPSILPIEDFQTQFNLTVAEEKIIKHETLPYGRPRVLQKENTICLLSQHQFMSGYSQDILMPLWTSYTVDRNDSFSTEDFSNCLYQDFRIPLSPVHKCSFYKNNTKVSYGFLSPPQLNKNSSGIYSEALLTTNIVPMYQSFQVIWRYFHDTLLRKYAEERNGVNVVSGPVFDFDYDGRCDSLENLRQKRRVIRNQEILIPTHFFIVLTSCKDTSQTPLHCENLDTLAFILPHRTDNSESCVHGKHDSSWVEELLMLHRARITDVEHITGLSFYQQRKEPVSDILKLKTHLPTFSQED

[2] = target: T2, Ectonucleotide pyrophosphatase/phosphodiesterase family member 3 (Homo sapiens) (UniProt O14638); assay: Inhibition of human NPP3 expressed in COS7 cell membranes at 100 uM using pNP-TMP as substrate preincubated for 3 mins followed by substrate addition and measured after 15 mins relative to control
T2 sequence (whole entry): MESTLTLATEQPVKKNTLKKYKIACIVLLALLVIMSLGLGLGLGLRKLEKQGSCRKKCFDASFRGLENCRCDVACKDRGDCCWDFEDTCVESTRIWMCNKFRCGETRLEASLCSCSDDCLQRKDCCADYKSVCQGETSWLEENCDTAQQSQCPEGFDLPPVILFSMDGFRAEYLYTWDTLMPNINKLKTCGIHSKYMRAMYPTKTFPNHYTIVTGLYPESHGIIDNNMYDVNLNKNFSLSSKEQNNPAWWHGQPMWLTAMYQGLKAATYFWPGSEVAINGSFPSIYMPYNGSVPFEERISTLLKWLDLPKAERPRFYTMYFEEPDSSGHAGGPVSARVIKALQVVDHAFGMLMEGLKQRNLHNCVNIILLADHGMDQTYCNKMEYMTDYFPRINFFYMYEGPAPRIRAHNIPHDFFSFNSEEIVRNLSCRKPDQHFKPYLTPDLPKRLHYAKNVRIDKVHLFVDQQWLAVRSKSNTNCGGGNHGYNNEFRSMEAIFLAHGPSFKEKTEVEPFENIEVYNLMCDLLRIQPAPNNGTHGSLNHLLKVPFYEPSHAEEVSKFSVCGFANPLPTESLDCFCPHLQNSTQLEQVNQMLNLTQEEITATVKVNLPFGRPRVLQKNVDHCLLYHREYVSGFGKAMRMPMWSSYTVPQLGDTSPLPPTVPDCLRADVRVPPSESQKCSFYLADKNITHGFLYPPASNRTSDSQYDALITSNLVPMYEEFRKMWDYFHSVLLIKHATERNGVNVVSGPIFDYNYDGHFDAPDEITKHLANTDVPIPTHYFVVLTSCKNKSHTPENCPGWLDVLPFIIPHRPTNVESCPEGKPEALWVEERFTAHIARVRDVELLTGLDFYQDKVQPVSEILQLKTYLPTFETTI

[3] = target: T3, Ectonucleotide pyrophosphatase/phosphodiesterase family member 1 (Homo sapiens, UniProt P22413); assay: Inhibition of human NPP1 expressed in COS7 cell membranes using pNP-TMP as substrate preincubated for 3 mins followed by substrate addition and measured after 15 mins by Dixon plot analysis
T3 sequence (P22413 whole entry): T1 sequence (whole entry)

[4] = target: P2Y purinoceptor 2 (Homo sapiens) (UniProt P41231); assay: Agonist activity at human P2Y2 receptor expressed in AD293 cells assessed as inositol-1-phosphate accumulation at 100 uM; assay type: functional, cell-based
[5] = target: P2Y purinoceptor 2 (Homo sapiens) (UniProt P41231); assay: Antagonist activity at human P2Y2 receptor expressed in AD293 cells assessed as inhibition of UTP-induced inositol-1-phosphate accumulation at 100 uM; assay type: functional, cell-based
[6] = target: P2Y purinoceptor 4 (Homo sapiens) (UniProt P51582); assay: Agonist activity at human P2Y4 receptor expressed in AD293 cells assessed as inositol-1-phosphate accumulation at 0.1 to 100 uM; assay type: functional, cell-based
[7] = target: P2Y purinoceptor 4 (Homo sapiens) (UniProt P51582); assay: Antagonist activity at human P2Y4 receptor expressed in AD293 cells assessed as inhibition of UTP-induced inositol-1-phosphate accumulation at 0.1 to 100 uM; assay type: functional, cell-based
[8] = target: P2Y purinoceptor 6 (Homo sapiens) (UniProt Q15077); assay: Antagonist activity at human P2Y6 receptor expressed in AD293 cells assessed as inhibition of UDP-induced inositol-1-phosphate accumulation at 0.1 to 100 uM; assay type: functional, cell-based
[9] = target: P2Y purinoceptor 6 (Homo sapiens) (UniProt Q15077); assay: Agonist activity at human P2Y6 receptor expressed in AD293 cells assessed as inositol-1-phosphate accumulation at 100 uM; assay type: functional, cell-based
[10] = species on record: Homo sapiens; assay: Inhibition of alkaline phosphatase in human primary chondrocyte at 100 uM using p-nitrophenyl phosphate as substrate after 30 mins by […] relative to control
[11] = Cytotoxicity against human primary chondrocytes at 100 uM after 24 hrs by XTT assay
[12] = target: T3, Ectonucleotide pyrophosphatase/phosphodiesterase family member 1; assay: Inhibition of full-length human NPP-1 expressed in baculovirus infected Sf9 cells using p-Nph5-TMP as substrate after 60 mins by colorimetric assay

Chain of P2Y purinoceptor 4 (Homo sapiens) (P51582 whole entry): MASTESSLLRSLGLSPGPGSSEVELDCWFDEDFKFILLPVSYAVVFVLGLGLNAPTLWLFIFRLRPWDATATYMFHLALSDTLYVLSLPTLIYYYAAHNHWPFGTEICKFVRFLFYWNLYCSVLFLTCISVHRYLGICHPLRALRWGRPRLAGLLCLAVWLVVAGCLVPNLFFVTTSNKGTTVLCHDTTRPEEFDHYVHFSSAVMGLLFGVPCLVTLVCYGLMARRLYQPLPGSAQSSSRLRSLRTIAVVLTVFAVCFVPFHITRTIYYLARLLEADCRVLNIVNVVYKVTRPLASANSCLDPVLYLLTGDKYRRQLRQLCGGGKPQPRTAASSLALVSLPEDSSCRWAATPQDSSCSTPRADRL
Chain of P2Y purinoceptor 6 (Homo sapiens) (Q15077 whole entry): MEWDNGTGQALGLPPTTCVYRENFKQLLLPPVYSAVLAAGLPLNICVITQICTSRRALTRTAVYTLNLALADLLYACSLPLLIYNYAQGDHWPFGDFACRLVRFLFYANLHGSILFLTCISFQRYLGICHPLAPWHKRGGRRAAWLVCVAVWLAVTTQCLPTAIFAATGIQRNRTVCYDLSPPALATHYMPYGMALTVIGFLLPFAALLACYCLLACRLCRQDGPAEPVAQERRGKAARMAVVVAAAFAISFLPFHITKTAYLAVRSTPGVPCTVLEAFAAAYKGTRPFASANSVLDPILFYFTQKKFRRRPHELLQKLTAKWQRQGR
Chain of P2Y purinoceptor 2 (Homo sapiens) (P41231 whole entry): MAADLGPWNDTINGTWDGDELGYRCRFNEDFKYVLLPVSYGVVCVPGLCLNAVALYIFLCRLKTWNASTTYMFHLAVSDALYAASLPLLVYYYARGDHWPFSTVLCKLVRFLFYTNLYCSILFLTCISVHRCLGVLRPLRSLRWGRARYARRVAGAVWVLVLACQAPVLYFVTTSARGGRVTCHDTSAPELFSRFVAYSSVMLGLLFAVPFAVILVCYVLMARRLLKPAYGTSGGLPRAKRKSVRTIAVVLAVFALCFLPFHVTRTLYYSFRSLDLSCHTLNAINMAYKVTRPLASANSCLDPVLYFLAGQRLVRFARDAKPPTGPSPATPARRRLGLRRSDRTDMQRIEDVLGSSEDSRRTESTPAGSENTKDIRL

| Structure (SMILES) | inhibition [1] | inhibition [2] | Ki [3] | Activity [4] | inhibition [5] | Activity [6] | inhibition [7] | inhibition [8] | Activity [9] | inhibition [10] | Activity [11] | Ki [12] |
| --- | --- | --- | --- | --- | --- | --- | --- | --- | --- | --- | --- | --- |
| O=c1ccn(COCCOP(=S)(S)OP(=O)(O)O)c(=O)[nH]1 (stereo not drawn) | 96 to 98% | 30% | 2830 nM | inactive | inactive | inactive | inactive | inactive | Active | < 10% | Non-Toxic |  |
| O=c1ccn(COCCOP(=S)(S)OP(=O)(O)OP(=O)(O)O)c(=O)[nH]1 (stereo not drawn) | 96 to 98% | 31% | 1280 nM | inactive | inactive | inactive | inactive | inactive | Active | < 10% | Non-Toxic |  |
| Nc1ncnc2c1ncn2COCCOP(=O)(O)CP(=O)(O)O |  |  |  |  |  |  |  |  |  |  |  | 16300 nM |
